# Patent US11352637B2, “Methods and compositions for herbicide tolerance in plants” (MONSANTO TECHNOLOGY LLC, priority 2017, dated 2022)
# Columns and labels:
# [1] = test system: KsIAA16 (R and S alleles) with KsTIR1 and/or KsAFB6; experiment: Y2H assay, summary statements over the protein combinations tested; assay type: binding, Kochia scoparia; conditions: for Facilitation of interaction of KsIAA16R with KsTIR1 and/or KsAFB6: at the concentrations tested; for Y2H interaction in the presence of the auxin: any of the protein combinations tested
# Description: (§1) Yeast two-hybrid (Y2H) studies were conducted using the Matchmaker® Gold Yeast Two-Hybrid System: vectors, transformation protocols and yeast strains (Clonetech Laboratories, Inc.). The coding sequences for the KsIAA16R (SEQ ID NO: 220), KsIAA16S (SEQ ID NO: 218), KsTIR1 (SEQ ID NO: 285), KsAFB6 (SEQ ID NO: 287), KsAFB2 (SEQ ID NO: 289), and KsAFB5 (SEQ ID NO: 291) were PCR amplified using primers specified in Table 2.
# (§2) PCR products were gel purified and recombined into NdeI/NotI digested pGADT7 or pGBKT7 vectors using the In-Fusion® cloning system (Clonetech Laboratories, Inc.). The pGBKT7 vector contained the GAL4 DNA binding domain, rendering the fusions as the “bait,” whereas the “prey” were the fusions containing the pGADT7 vector, which contained the GAL4 activation domain. All vectors were first sequence verified and then the listed vector combinations were co-transformed into the yeast strain, Y2HGold. […] Transformants were plated on SC-Trp-Leu plates to select for those containing both plasmids. Four healthy colonies were selected at random and resuspended into 300 μL of 0.1% agar in water. Five μL of this dilution was replica spotted onto each plate. Plates were incubated at 30° C. for 3 days prior to evaluation of colony growth.
# (§3) This method enabled the study of the binding/interaction of the Kochia R and S alleles of KsIAA16 with each of the Kochia TIR/AFB homologs (KsTIR1 (SEQ ID NO: 285), and KsAFB6 (SEQ ID NO: 287)) in the absence or presence of 100 μM or 500 μM exogenous concentrations of IAA, NAA, dicamba, and 2,4-D, picloram, triclopyr, quinclorac, fluroxypyr or phenylacetic acid (PAA).
# [2] = test system: KsIAA16R in combination with KsAFB6; experiment: Yeast two-hybrid (Y2H) assay: KsIAA16R binding with KsAFB6 in presence of auxin; set-up: species or system Kochia scoparia; conditions: for Ability of KsIAA16R to interact with KsAFB6 in the presence of the auxin: only the higher concentration could facilitate binding; for Interaction between KsIAA16R and KsAFB6 in the presence of the auxin: at the concentrations tested
# Description: as §1, §2, §3
# [3] = test system: seedlings of the R and S Kochia biotypes; experiment: Root elongation response of Kochia seedlings; assay type: in vivo, Kochia scoparia; conditions: for Root elongation inhibition of the R Kochia biotype: R biotype seedlings, FIG. 5
# Description: The root elongation response of seedlings from the R and S Kochia biotypes was tested to determine if the R biotype response was consistent with the Y2H findings. For root elongation studies, plant nutrient media was used, with 0.5% sucrose. Seeds were surface sterilized in 30% bleach with 0.1% Triton-X100 for 10 to 30 minutes, then rinsed twice in sterile water and resuspended in 0.1% agar for plating. Root lengths were measured to the nearest millimeter, and the average root length of 12 individuals was calculated unless otherwise noted.
# [4] = test system: transgenic Arabidopsis carrying AtIAA16P:KsIAA16 constructs; experiment: Root elongation inhibition assay of T2 transgenic Arabidopsis on plant nutrient plus IAA or dicamba; assay type: in vivo, Arabidopsis thaliana
# Excerpt: To determine if the presence of the KsIAA16R allele alone was necessary and sufficient to confer dicamba resistance, several transgene expression constructs were generated for study of KsIAA16 in Arabidopsis. Agrobacterium tumefaciens was used to introduce the binary vectors in the plants using the floral dip method (Clough and Bent, 1998). Vectors contained either the ethanol inducible alcA promoter elements (Salter et al., 1998), the constitutive CaMV35S promoter, or the native Arabidopsis IAA16 promoter (AtIAA16P) driving either KsIAA16R (SEQ ID NO: 220) or KsIAA16S (SEQ ID NO: 218). GUS reporter constructs contained a 2.5 kb genomic DNA fragment from directly upstream of KsIAA16, which is expected to contain most of the promoter elements as well as the 5′UTR, driving uidA. All constructs contained either a Spectinomycin resistance gene (SPEC) or a glufosinate resistance gene (BAR) in the T-DNA region to serve as the selectable marker. For all constructs, T1 seed was harvested, surface sterilized, and plated on the appropriate selective media to identify independent T1 transformants. Single seed decent and segregation on selective media was used to estimate transgene insertion number and identify homozygous lines. For induction of the P-Alc promoter, ethanol was added to a final concentration of 0.01% just before plates were poured, and plates were used immediately. All plates were grown in a Percival growth chamber (Percival Scientific, Inc.) at 22° C. with 16 hour day/8 hour night light cycle and a light intensity of […]. Relative humidity was maintained at 50%. GUS assays were performed according to standard protocols. Briefly, a 20 mg/mL X-Gluc (GoldBio, St. Louis, Mo.) stock in dimethylformamide was diluted into 50 mM phosphate buffer, pH 7.0, to a final concentration of 1 mg/mL. This solution was added to plant tissues, and samples were placed under vacuum for 5 minutes to ensure penetration of the solution into the tissues. Samples were covered in foil to prevent light entry and place at 37° C. for 24 hours to allow color development. Staining solution was removed and chlorophyll was cleared by incubating samples in 50% ethanol for several hours.
# [5] = test system: R and S Kochia biotypes; experiment: Greenhouse spray test for cross-resistance of Kochia R-biotype; assay type: in vivo, Kochia scoparia; conditions: all treatments, track sprayer, 10 to 15 cm tall plants
# Excerpt: To elucidate whether the Kochia R-biotype is cross resistant to 2,4-D or fluroxypyr, greenhouse grown 10 to 15 cm tall Kochia plants were sprayed with either Dicamba at 0,140, 280, 560, 2240, 4480, 6720, 8960, or 17920 g a.e.ha^−1; 2,4-D at 0, 70, 140, 280, 560, 1120, 2240, 4480, 6720, 8960 g a.e.ha^−1 or fluroxypyr at 0, 17.5, 35, 70, 140, 280, 420, 560, 1120, 2240 g a.e.ha^−1 with a track sprayer. […]
# [6] = test system: KsIAA16R in combination with KsTIR1; experiment: Yeast two-hybrid (Y2H) assay: KsIAA16R binding with KsTIR1 in presence of auxin; set-up: species or system Kochia scoparia; conditions: compared with KsIAA16S; concentration not given
# Description: as §1
# (§4) PCR products were gel purified and recombined into NdeI/NotI digested pGADT7 or pGBKT7 vectors using the In-Fusion® cloning system (Clonetech Laboratories, Inc.). The pGBKT7 vector contained the GAL4 DNA binding domain, rendering the fusions as the “bait,” whereas the “prey” were the fusions containing the pGADT7 vector, which contained the GAL4 activation domain. All vectors were first sequence verified and then the listed vector combinations were co-transformed into the yeast strain, Y2HGold. […] Transformants were plated on SC-Trp-Leu plates to select for those containing both plasmids. Four healthy colonies were selected at random and resuspended into 300 μL of 0.1% agar in water. Five μL of this dilution was replica spotted onto each plate. Plates were incubated at 30° C. for 3 days prior to evaluation of colony growth. […]
# [7] = test system: KsIAA16S in combination with KsAFB6; experiment: Yeast two-hybrid (Y2H) assay: KsIAA16S binding with KsAFB6 in presence of auxin; set-up: species or system Kochia scoparia; conditions: allele KsIAA16S; auxin 500 μM; yeast colony growth
# Description: as §1, §4
structure (smiles),measurement,setting,value
"O=C(O)Cc1c[nH]c2ccccc12 [IAA, indole-3-acetic acid]",Facilitation of interaction of KsIAA16R with KsTIR1 and/or KsAFB6,[1],can facilitate some interaction
same,Ability of KsIAA16R to interact with KsAFB6 in the presence of the auxin,[2],reduced ability to interact
same,Root elongation inhibition of the R Kochia biotype,[3],remained sensitive
same,Root Length (in mm) of T2 transgenics on plant nutrient plus auxin,"[4]; line AtIAA16P:KsIAA16R_T2-1, +5 μM auxin",12.17 ± 1.01 mm
same,Root Length (in mm) of T2 transgenics on plant nutrient plus auxin,"[4]; line AtIAA16P:KsIAA16R_T2-2, +5 μM auxin",18.17 ± 3.09 mm
same,Root Length (in mm) of T2 transgenics on plant nutrient plus auxin,"[4]; line AtIAA16P:KsIAA16R_T2-3, +5 μM auxin",22.75 ± 2.09 mm
same,Root Length (in mm) of T2 transgenics on plant nutrient plus auxin,"[4]; line AtIAA16P:KsIAA16R_T2-4, +5 μM auxin",27.25 ± 1.88 mm
same,Root Length (in mm) of T2 transgenics on plant nutrient plus auxin,"[4]; line AtIAA16P:KsIAA16S_T2-1, +5 μM auxin",7.0 ± 0.77 mm
same,Root Length (in mm) of T2 transgenics on plant nutrient plus auxin,"[4]; line AtIAA16P:KsIAA16S_T2-2, +5 μM auxin",9.5 ± 0.84 mm
same,Root Length (in mm) of T2 transgenics on plant nutrient plus auxin,"[4]; line AtIAA16P:KsIAA16S_T2-3, +5 μM auxin",5.67 ± 0.54 mm
same,Root Length (in mm) of T2 transgenics on plant nutrient plus auxin,"[4]; line AtIAA16P:KsIAA16S_T2-4, +5 μM auxin",5 ± 0.34 mm
same,Root Length (in mm) on plant nutrient plus auxin,"[4]; non-transgenic WT, +5 μM auxin",5.83 ± 0.24 mm
same,Resistance to root inhibition,[4]; several lines from both constructs,slight resistance
"O=C(O)Cc1ccccc1 [PAA, phenylacetic acid]",Y2H interaction in the presence of the auxin,[1],No interaction
same,Effect on root elongation,"[3]; Kochia seedlings, biotype not stated",had an effect on root elongation
"O=C(O)COc1ccc(Cl)cc1Cl [2,4-D, 2,4-dichlorophenoxyacetic acid]",Facilitation of interaction of KsIAA16R with KsTIR1 and/or KsAFB6,[1],cannot
same,Interaction between KsIAA16R and KsAFB6 in the presence of the auxin,[2],not observed
same,Root elongation inhibition of the R Kochia biotype,[3],resistant
same,Visible injury at 14 days after treatment (DAT),[5],observed
same,Ability of KsIAA16R to interact with KsTIR1 in the presence of the auxin,[6],decreased ability to interact
"O=C(O)c1c(Cl)ccc2cc(Cl)cnc12 [Quinclorac, 3,7-dichloro-8-quinolinecarboxylic acid]",Ability to bind in combination with KsAFB6,[7],observed to interact
same,Facilitation of interaction of KsIAA16R with KsTIR1 and/or KsAFB6,[1],cannot
same,Interaction between KsIAA16R and KsAFB6 in the presence of the auxin,[2],not observed
"Nc1c(Cl)c(Cl)nc(C(=O)O)c1Cl [Picloram, 4-amino-3,5,6-trichloro-2-pyridinecarboxylic acid]",Ability to bind in combination with KsAFB6,[7],observed to interact
same,Facilitation of interaction of KsIAA16R with KsTIR1 and/or KsAFB6,[1],cannot
same,Interaction between KsIAA16R and KsAFB6 in the presence of the auxin,[2],not observed
"Nc1c(Cl)c(F)nc(OCC(=O)O)c1Cl [Fluroxypyr, 4-amino-3,5-dichloro-6-fluoro-2-pyridyloxyacetic acid]",Y2H interaction in the presence of the auxin,[1],No interaction
same,Facilitation of interaction of KsIAA16R with KsTIR1 and/or KsAFB6,[1],cannot
same,Visible injury at 14 days after treatment (DAT),[5],observed
"O=C(O)Cc1cccc2ccccc12 [NAA, 2-(1-naphthyl) acetic acid]",Facilitation of interaction of KsIAA16R with KsTIR1 and/or KsAFB6,[1],can facilitate some interaction
same,Ability of KsIAA16R to interact with KsAFB6 in the presence of the auxin,[2],reduced ability to interact
same,Root elongation inhibition of the R Kochia biotype,[3],remained sensitive
